Reference: patent US8067619B2, “Coumarin derivatives as ion channel openers” (Janssen Pharmaceutica N.V., priority 2005, dated 2011)
pEC50: −log10 of the molar value.

What follows are molecules tested against T1, KATP channels (Homo sapiens, UniProt O60706+Q14654) (assay: Potassium Channel Assay (FLIPR membrane potential, TE671 cells)). Conditions: TE671 human medulloblastoma cells, Membrane Potential Assay Dye, room temperature, hyperpolarization from KATP channel opening seen as decrease in fluorescent intensity.
T1 construct: TE671 human medulloblastoma cells were obtained from ATCC; host or cells: TE671 human medulloblastoma cells
Format: cell-based
Protocol: TE671 human medulloblastoma cells were obtained from ATCC and grown in Dulbecco's modified Eagle's medium (DMEM) supplemented with 10% fetal bovine serum, 100 U/ml penicillin and 100 U/ml streptomycine.
The day before testing, the cells were plated in black 96-well plates at 50K/well. On the day of testing, the growth media was removed, then 100 μl of FLIPR buffer (20 mM HEPES, 120 mM NaCl, 2 mM KCl, 2 mM CaCl2, 1 mM MgCl2, 5 mM Glucose) and 100 μl of Membrane Potential Assay Dye (Molecular Devices) dissolved in FLIPR buffer were added to each well. The cells were incubated at room temperature for 15 to 30 min.
The effect of test compounds on KATP channels were evaluated on a fluorometric imaging plate reader (FLIPR, Molecular Devices) at room temperature. After a baseline period, 50 μl of 5× stock solution of test compound prepared in FLIPR buffer was added and fluorescent change was monitored for 3 minutes. After this reading, glyburide, a KATP channel blocker, was added to a final concentration of 5 μM to check the specificity of the test compound as a KATP channel openers. Hyperpolarization resulting from KATP channel opening was observed as a decrease in fluorescent intensity.

T1 sequence (O60706 1-1549 isoform O60706-2): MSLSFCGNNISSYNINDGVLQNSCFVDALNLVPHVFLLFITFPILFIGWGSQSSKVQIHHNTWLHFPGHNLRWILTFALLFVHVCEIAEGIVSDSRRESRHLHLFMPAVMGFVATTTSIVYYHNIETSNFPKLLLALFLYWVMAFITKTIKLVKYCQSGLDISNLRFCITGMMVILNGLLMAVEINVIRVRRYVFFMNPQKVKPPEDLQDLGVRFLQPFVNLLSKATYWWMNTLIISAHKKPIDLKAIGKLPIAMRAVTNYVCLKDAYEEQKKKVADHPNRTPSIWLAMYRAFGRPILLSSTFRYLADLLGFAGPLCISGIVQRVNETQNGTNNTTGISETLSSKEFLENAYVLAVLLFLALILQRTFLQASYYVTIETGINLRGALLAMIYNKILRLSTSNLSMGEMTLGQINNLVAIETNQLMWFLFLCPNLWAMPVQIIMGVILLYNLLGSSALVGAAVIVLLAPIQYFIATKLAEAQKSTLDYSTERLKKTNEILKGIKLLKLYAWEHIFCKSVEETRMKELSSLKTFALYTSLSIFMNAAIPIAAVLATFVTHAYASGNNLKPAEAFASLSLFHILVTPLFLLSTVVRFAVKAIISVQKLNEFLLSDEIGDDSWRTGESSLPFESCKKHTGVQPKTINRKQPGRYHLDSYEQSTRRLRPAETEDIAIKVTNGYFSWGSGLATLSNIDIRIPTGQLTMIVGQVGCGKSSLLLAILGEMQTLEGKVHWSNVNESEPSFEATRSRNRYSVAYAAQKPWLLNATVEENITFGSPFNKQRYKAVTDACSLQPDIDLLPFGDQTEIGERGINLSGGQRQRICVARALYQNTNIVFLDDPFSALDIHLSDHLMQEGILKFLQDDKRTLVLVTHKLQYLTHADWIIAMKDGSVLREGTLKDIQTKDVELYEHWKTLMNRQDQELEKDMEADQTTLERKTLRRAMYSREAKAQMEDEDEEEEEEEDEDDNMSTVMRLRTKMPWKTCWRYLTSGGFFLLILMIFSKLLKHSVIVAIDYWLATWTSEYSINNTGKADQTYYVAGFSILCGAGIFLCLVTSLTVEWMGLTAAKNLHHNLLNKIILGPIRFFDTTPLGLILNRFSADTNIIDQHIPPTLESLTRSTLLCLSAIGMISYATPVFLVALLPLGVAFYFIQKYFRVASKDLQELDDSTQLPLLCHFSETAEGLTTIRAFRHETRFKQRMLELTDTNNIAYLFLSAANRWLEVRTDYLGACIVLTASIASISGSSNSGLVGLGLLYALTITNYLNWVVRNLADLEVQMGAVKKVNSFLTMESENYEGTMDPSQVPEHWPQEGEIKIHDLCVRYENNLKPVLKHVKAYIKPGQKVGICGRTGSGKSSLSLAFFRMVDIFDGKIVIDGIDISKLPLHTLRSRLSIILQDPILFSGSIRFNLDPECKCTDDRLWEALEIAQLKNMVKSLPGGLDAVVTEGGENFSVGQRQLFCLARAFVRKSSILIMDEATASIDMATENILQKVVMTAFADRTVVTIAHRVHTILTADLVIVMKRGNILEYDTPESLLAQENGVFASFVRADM
T1 sequence (Q14654 whole entry): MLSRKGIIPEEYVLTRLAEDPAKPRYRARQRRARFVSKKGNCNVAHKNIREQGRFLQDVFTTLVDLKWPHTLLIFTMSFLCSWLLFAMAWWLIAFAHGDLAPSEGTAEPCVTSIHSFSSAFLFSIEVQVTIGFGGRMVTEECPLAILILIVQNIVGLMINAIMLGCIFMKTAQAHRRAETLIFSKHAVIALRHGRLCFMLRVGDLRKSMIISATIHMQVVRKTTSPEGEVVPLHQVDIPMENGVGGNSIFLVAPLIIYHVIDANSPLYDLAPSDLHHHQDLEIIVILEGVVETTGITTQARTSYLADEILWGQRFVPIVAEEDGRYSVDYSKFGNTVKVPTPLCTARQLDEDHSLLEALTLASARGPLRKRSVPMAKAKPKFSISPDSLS

**Q.** `Cc1c(C(=O)c2ccc(Cl)cc2)c(=O)oc2cc(C#N)ccc12` [Compound 3, 3-(4-Chloro-benzoyl)-4-methyl-2-oxo-2H-chromene-7-carbonitrile] was tested. Which pEC50 did it give?
**A.** < 4.52

**Q.** How did the pEC50 turn out when `N#Cc1ccc2c(CC(O)c3ccc(Cl)cc3Cl)cc(=O)oc2c1` (stereo not shown) [Compound 14, 4-[2-(2,4-Dichloro-phenyl)-2-hydroxy-ethyl]-2-oxo-2H-chromene-7-carbonitrile] was run?
**A.** < 4.52

**Q.** With `N#Cc1ccc2c(CC(=O)Nc3cccc(Cl)c3Cl)cc(=O)oc2c1` [Compound 19, 2-(7-Cyano-2-oxo-2H-chromen-4-yl)-N-(2,3-dichloro-phenyl)-acetamide] as the molecule, how does the pEC50 read?
**A.** 4.97

**Q.** `C=Cc1c(-c2ccc(C#N)cc2O)c(=O)oc2cc(F)ccc12` [Compound 11, 44-(7-Fluoro-2-oxo-4-vinyl-2H-chromen-3-yl)-3-hydroxy-benzonitrile] was tested. Which pEC50 did it give?
**A.** < 4.52

**Q.** With `N#Cc1ccc2c(CC(=O)c3ccc(Cl)cc3)cc(=O)oc2c1` [Compound 4, 4-[2-(4-Chloro-phenyl)-2-oxo-ethyl]-2-oxo-2H-chromene-7-carbonitrile] as the molecule, how does the pEC50 read?
**A.** 4.80

**Q.** With `O=C(Cc1cc(=O)oc2ccc(OS(=O)(=O)C(F)(F)F)cc12)c1cccc(Cl)c1` [Compound 22, Trifluoro-methanesulfonic acid 4-[2-(3-chloro-phenyl)-2-oxo-ethyl]-2-oxo-2H-chromen-6-yl ester] as the molecule, how does the pEC50 read?
**A.** 4.70

**Q.** How did the pEC50 turn out when `COCCc1c(-c2ccc(OC)cc2OC)c(=O)oc2cc(OS(=O)(=O)C(F)(F)F)ccc12` [Compound 2, Trifluoro-methanesulfonic acid 3-(2,4-dimethoxy-phenyl)-4-(2-methoxy-ethyl)-2-oxo-2H-chromen-7-yl ester] was run?
**A.** 5.02

**Q.** How did the pEC50 turn out when `O=C(Cc1cc(=O)oc2cc(OS(=O)(=O)C(F)(F)F)ccc12)Nc1c(Cl)cc(Cl)cc1Cl` [Compound 13, Trifluoro-methanesulfonic acid 2-oxo-4-[(2,4,6-trichloro-phenylcarbamoyl)-methyl]-2H-chromen-7-yl ester] was run?
**A.** 5.06

**Q.** How did the pEC50 turn out when `N#Cc1ccc2oc(=O)cc(CC(=O)c3cccc(Cl)c3)c2c1` [Compound 21, 4-[2-(3-Chloro-phenyl)-2-oxo-ethyl]-2-oxo-2H-chromene-6-carbonitrile] was run?
**A.** < 4.52

**Q.** How did the pEC50 turn out when `N#Cc1ccc2c(CC(=O)Nc3ccc(F)cc3F)cc(=O)oc2c1` [Compound 15, 2-(7-Cyano-2-oxo-2H-chromen-4-yl)-N-(2,4-difluoro-phenyl)-acetamide] was run?
**A.** 4.86

**Q.** With `O=c1oc2cc(OS(=O)(=O)C(F)(F)F)ccc2c(CCO)c1-c1ccc(O)cc1O` [Compound 7, Trifluoro-methanesulfonic acid 3-(2,4-dihydroxy-phenyl)-4-(2-hydroxy-ethyl)-2-oxo-2H-chromen-7-yl ester] as the molecule, how does the pEC50 read?
**A.** 4.71

**Q.** `N#Cc1ccc2c(CCO)c(-c3ccc(O)cc3O)c(=O)oc2c1` [Compound 8, 3-(2,4-Dihydroxy-phenyl)-4-(2-hydroxy-ethyl)-2-oxo-2H-chromene-7-carbonitrile] was tested. Which pEC50 did it give?
**A.** 4.63

**Q.** With `N#Cc1ccc2c(CC(=O)Nc3cccc(Cl)c3)cc(=O)oc2c1` [Compound 18, N-(3-Chloro-phenyl)-2-(7-cyano-2-oxo-2H-chromen-4-yl)-acetamide] as the molecule, how does the pEC50 read?
**A.** 5.11

**Q.** How did the pEC50 turn out when `N#Cc1ccc2c(CC(=O)Nc3ccccc3Cl)cc(=O)oc2c1` [Compound 17, N-(2-Chloro-phenyl)-2-(7-cyano-2-oxo-2H-chromen-4-yl)-acetamide] was run?
**A.** 4.71

**Q.** With `C=Cc1c(-c2ccc(O)cc2O)c(=O)oc2cc(C#N)ccc12` [Compound 9, 3-(2,4-Dihydroxy-phenyl)-2-oxo-4-vinyl-2H-chromene-7-carbonitrile] as the molecule, how does the pEC50 read?
**A.** 5.48

**Q.** With `N#Cc1ccc2oc(=O)cc(CC(O)c3ccc(Cl)cc3Cl)c2c1` (stereo not shown) [Compound 20, 4-[2-(2,4-Dichloro-phenyl)-2-hydroxy-ethyl]-2-oxo-2H-chromene-6-carbonitrile] as the molecule, how does the pEC50 read?
**A.** < 4.52

**Q.** With `N#Cc1ccc2c(CC(=O)Nc3ccccc3F)cc(=O)oc2c1` [Compound 16, 2-(7-Cyano-2-oxo-2H-chromen-4-yl)-N-(2-fluoro-phenyl)-acetamide] as the molecule, how does the pEC50 read?
**A.** 5.42

**Q.** `COCCc1c(-c2ccc(OC)cc2OC)c(=O)oc2cc(C#N)ccc12` [Compound 6, 3-(2,4-Dimethoxy-phenyl)-4-(2-methoxy-ethyl)-2-oxo-2H-chromene-7-carbonitrile] was tested. Which pEC50 did it give?
**A.** < 4.52

**Q.** `O=c1cc(CC(O)c2ccc(Cl)cc2Cl)c2ccc(OS(=O)(=O)C(F)(F)F)cc2o1` (stereo not shown) [Compound 12, Trifluoro-methanesulfonic acid 4-[2-(2,4-dichloro-phenyl)-2-hydroxy-ethyl]-2-oxo-2H-chromen-7-yl ester] was tested. Which pEC50 did it give?
**A.** 5.18
